Test results: patent publication US5308625A, “Enhancement of transdermal drug delivery using monoalkyl phosphates and other absorption promoters” (priority 1992, dated 1994)
≈ marks a conversion by molar mass, not a printed value. Entries after “also recorded” stand apart in the source; their conditions may differ. Like-named read-outs stand apart in the source and are kept apart here.

Tests used:
[1] = oral dose of 2 mg; cited from earlier work
[2] = tested on: human cadaver epidermis; conditions: pH 6.8
[3] = tested on: coronary strips; conditions: cited from earlier work; for dependence of vasodilation action on cysteine: presence / absence of cysteine
[4] = tested on: patients with coronary heart disease; conditions: cited from earlier work
[5] = cited from earlier work
[6] = Solubilities of molsidomine in various solvents (saturation at 32° C., HPLC); type: physicochemical
Method: Molsidomine powder was weighed on weighing paper and transferred into the sample vial. Solvent was transferred into the vial followed by insertion of a small Teflon-coated magnetic stirring bar. The sample vial was screw-capped and placed on top of a multiple stirring system obtained from Florida Scientific, Inc. and housed in an incubation oven at 32° C. The sample solutions were examined for saturation. More molsidomine was added to the solutions until saturation was achieved.
The saturated solutions were filtered through a micro filter to remove excess solid molsidomine. The filtered samples were then assayed for molsidomine concentration by the HPLC analytical method.
In this way, the solubility of molsidomine in the particular vehicle(s) was estimated.

[7] = in vivo; cited from earlier work
[8] = cited from earlier work; remark: listed apart in the source
[9] = tested on: soluble guanylate cyclase; conditions: by nitric oxide liberated from the active metabolite SIN-1A; cited from earlier work
[10] = tested on: human skin; conditions: in vivo; cited from earlier work
[11] = tested on: human cadaver epidermis; experiment: Skin flux through human cadaver epidermis (modified Franz vertical diffusion cell, 32° C)

CCOC(=O)[N-]c1cn(N2CCOCC2)n[o+]1 [Molsidomine, N-5-ethoxycarbonyl-3-morpholinosydnonimine]
total clearance [1]: 46,000 ml/hr
skin flux from aqueous solution [2]: 9.7±1.9 μg/hr-cm^2
tolerance [3]: insignificant tolerance
treatment and prevention of anginal pectoris ([4]; daily oral dosing of 2 mg for 3 to 4 times, clinical studies): effective
anti-anginal effect ([4]; human, in vivo): sustained anti-anginal effect
duration of anti-anginal effects ([4]; single oral dose of 2 mg, patients with coronary heart disease): 3 to 5 h
Saturated solubility ([5]; Glycerin, 25° C.): 1.80%
Saturated solubility ([5]; Glycol salicylate, 25° C.): 15.1%
Saturated solubility ([5]; Isopropyl myristate, 25° C.): 0.09%
Saturated solubility ([5]; Octyl.decyl oil, 25° C.): 0.36%
Saturated solubility ([5]; Oleic Acid, 25° C.): 1.37%
Saturated solubility ([5]; PEG 400, 25° C.): 5.23%
Solubility (in words) ([5]; in CHCl3): Freely soluble
Solubility (in words) ([5]; in dil HCl, ethanol, ethyl acetate and methanol): Soluble
Solubility (in words) ([5]; in ether, petr ether): very slightly soluble
Solubility (in words) ([5]; in propylene glycol and a variety of organic solvents): soluble
Solubility (in words) ([5]; in water, acetone, benzene): sparingly soluble
solubility ([6]; aqueous buffer, Phosphate buffer pH 5.68, read-out: Solubilities): 12.3 ± 1.8 mg/mL (≈ 50.8 mM)
solubility ([6]; organic solvent or mixture, Propylene Glycol (PG), read-out: Solubilities): 85.5 ± 3.9 mg/mL (≈ 353 mM)
solubility ([6]; organic solvent or mixture, propylene glycol and propylene glycol with 10% of oleic acid, lauryl alcohol or PGML, read-out: solubility): ~90 mg/mL (≈ 372 mM)
solubility ([6]; pH 6.8, aqueous buffer, Phosphate buffer pH 6.80, read-out: Solubilities): 12.1 ± 1.3 mg/mL (≈ 50 mM)
solubility ([6]; propylene glycol:lauryl alcohol (10%), organic solvent or mixture, PG:Lauryl Alcohol (10%), read-out: Solubilities): 89.3 ± 1.5 mg/mL (≈ 369 mM)
solubility ([6]; propylene glycol:oleic acid (10%), organic solvent or mixture, PG:Oleic Acid (10%), read-out: Solubilities): 88.1 ± 0.7 mg/mL (≈ 364 mM)
solubility ([6]; propylene glycol:pgml (10%), organic solvent or mixture, PG:PGML (10%), read-out: Solubilities): 92.9 ± 2.8 mg/mL (≈ 384 mM)
metabolism [7]: can be metabolized to SIN-1
Chemical stability (in words) ([8]; aqueous solution of pH 5 to 7): very stable; also recorded: most stable
t90 ([8]; pH 1-2, 20° C.): 38 days
t90 ([8]; pH 4, 20° C.): 250 days
t90 ([8]; pH 5-7, 20° C.): 950 days
t90 ([8]; pH 10, 20° C.): 400 days
t90 ([8]; pH 11, 20° C.): 40 days
Photosensitivity ([8]; particularly in sunlight): photosensitive

N#CCN(N=O)N1CCOCC1 [SIN-1A]
activation of soluble guanylate cyclase [9]: activates the soluble guanylate cyclase
dependence of vasodilation action on cysteine [3]: active in both the presence and absence of cysteine

CCCCCCCCCCCCOP(=O)(O)O [mono-dodecyl phosphate (DDPO4), phosphoric acid mono-dodecyl ester]
human skin irritation potential [10]: very low human skin irritation potential
permeation enhancement of molsidomine (increment of skin flux) ([11]; addition of 10% DDPO4 to PGML, FIG. 3): four times increment
pirsidomine skin permeation enhancement ([11]; pirsidomine): showed pirsidomine skin permeation enhancement

O=[N+]([O-])OCC(CO[N+](=O)[O-])O[N+](=O)[O-] [nitroglycerin]
tolerance [3]: tolerance toward the drug developed in coronary strips can be antagonized by cysteine
dependence of vasodilation action on cysteine [3]: depends on the presence of cysteine
